Series [1] concerns normal human umbilical vein endotherial cells (HUVEC). The series is described as follows: VEGF-induced HUVEC proliferation (in vitro angiogenesis inhibition test). The format is cell-based. The note with it: 10 μM test compound, 10 ng/ml VEGF, three days after adding VEGF, WST-8 absorbance at 450 nm; for Inhibitory rate (%) (cell growth inhibitory rate to the control): 10 µM; for inhibition at 10 µM: Homo sapiens, HUVEC, 72 h, read-out: Inhibitory rate (%) (cell growth inhibitory rate to the control). As for the experimental part:
(1) Angiogenesis Inhibition Tests Using Human Endothelial Cells
The effects of the present compounds on the in vitro angiogenesis were evaluated by using vascular endothelial growth factor (VEGF)-induced normal human umbilical vein endotherial cells (HUVEC) proliferation system (Cancer Res., 59, 99-106 (1999)), wherein inhibitory effects of drugs on cell growth reactions induced by treating HUVEC with VEGF as an in vitro angiogenesis evaluation model.
The present compound was dissolved in DMSO and then diluted with a medium to prepare 40 μM test compound solution.
2×10^3 cells/well of HUVEC was seeded onto a type I collagen coated 96-well plate. After one day, 25 μl of the 40 μM test compound solution and a 0.8% DMSO solution as a control were added to each well (final concentration; 10 μM of the test compound and 0.2% of DMSO). One hour after adding the test compound, 25 μl of 40 ng/ml VEGF solution was added to each well(final concentration; 10 ng/ml of VEGF). Three days after adding VEGF, a WST-8 assay reagent (manufactured by Dojin Chemical Co., Ltd.) was added to each well in an amount of 10 μl, and absorbance at 450 nm was measured.
Calculating cell growth inhibitory rates (%) to the control, angiogenesis inhibitory rates of almost all of the test compounds were 80% or higher.

For the compound `CC(CNC(=O)N(CCN(C)C(=O)OC(C)(C)C)CCC12CC3CC(CC(C3)C1)C2)Cc1ccncc1` (single isomer, unassigned; (+)) [Compound No. 1-139, (+)-1-[2-(1-Adamantyl)ethyl]-1-[2-[N-(t-butoxycarbonyl)-N-methylamino]ethyl]-3-[2-methyl-3-(4-pyridyl)propyl]urea], the melting point lay in the range of 122.7 to 123.7 °C. For the same compound, in series [1], the “Inhibitory rate (%) (cell growth inhibitory rate to the control)” value is listed as 83.1%.

For `CCCCCN(CCC12CC3CC(CC(C3)C1)C2)C(=O)NCC(C)Cc1ccncc1` (single isomer, unassigned; (-)) [Compound No. 1-120, (−)-1-[2-(1-Adamantyl)ethyl]-3-[2-methyl-3-(4-pyridyl)propyl]-1-pentylurea], in series [1], the inhibition at 10 µM worked out at 83.1%.

On to `CCCCCN(CCC12CC3CC(CC(C3)C1)C2)C(=O)NCCCc1ccncc1` [Compound No. 1-1, 1-[2-(1-Adamantyl)ethyl]-1-pentyl-3-[3-(4-pyridyl)propyl]urea], for which, in series [1], the inhibition at 10 µM came to 83.4%.

The compound `O=C(NCCCc1ccncc1)N(CCC(F)(F)F)CCC12CC3CC(CC(C3)C1)C2` [Compound No. 1-24, 1-[2-(1-Adamantyl)ethyl]-3-[3-(4-pyridyl)propyl]-1-(3,3,3-trifluoropropyl)urea] had a melting point of 107.5 to 109 °C. Moreover, in series [1], the inhibition at 10 µM was 82.1%.

In turn, `CC=CCN(CCC12CC3CC(CC(C3)C1)C2)C(=O)NCCCc1ccncc1` [Compound No. 1-25, 1-[2-(1-Adamantyl)ethyl]-1-(2-butenyl)-3-[3-(4-pyridyl)propyl]urea] had a melting point of 89.5 to 93.5 °C. The inhibition at 10 µM in series [1] came to 83.2%.

In the case of `CN(CCN(CCC12CC3CC(CC(C3)C1)C2)C(=O)NCCCc1ccncc1)C(=O)OC(C)(C)C` [Compound No. 1-26, 1-[2-(1-Adamantyl)ethyl]-[2-[N-(t-butoxycarbonyl)-N-methylamino]ethyl]-3-[3-(4-pyridyl)propyl]urea], the inhibition at 10 µM in series [1] was determined as 79.2%.

As to `CCCN(CCCC12CC3CC(CC(C3)C1)C2)C(=O)NCCCc1ccncc1` [Compound No. 1-35, 1-[3-(1-Adamantyl)propyl]-1-propyl-3-[3-(4-pyridyl)propyl]urea], the inhibition at 10 µM in series [1] was 83.7%.

With `CCCCCN(CCC12CC3CC(CC(C3)C1)C2)C(=O)NCC(C)Cc1ccncc1` (centres unmarked) [Compound No. 1-100, 1-[2-(1-Adamantyl)ethyl]-3-[2-methyl-3-(4-pyridyl)propyl]-1-pentylurea], the “Inhibitory rate (%) (cell growth inhibitory rate to the control)” value in series [1] was found to be 83.0%.

Consider `CC(CNC(=O)N(CCN(C)C(=O)OC(C)(C)C)CCC12CC3CC(CC(C3)C1)C2)Cc1ccncc1` (centres unmarked) [Compound No. 1-107], for which, in series [1], the inhibition at 10 µM was 83.2%.

Regarding `CCCCCN(CCC12CC3CC(CC(C3)C1)C2)C(=O)NC/C=C\c1ccncc1` [Compound No. 1-111, (Z)-1-[2-(1-Adamantyl)ethyl]-1-pentyl-3-[3-(4-pyridyl)-2-propenyl]urea], in series [1], the inhibition at 10 µM came out at 83.1%.

Take `CCCCCN(CCC12CC3CC(CC(C3)C1)C2)C(=O)NC/C=C/c1ccncc1` [Compound No. 1-112, (E)-1-[2-(1-Adamantyl)ethyl]-1-pentyl-3-[3-(4-pyridyl)-2-propenyl]urea]: the melting point is 90 to 118 °C. The inhibition at 10 µM in series [1] came to 83.2%.

As to `CCCCCN(CCC1CCCCC1)C(=O)NCC(C)Cc1ccncc1` (centres unmarked) [Compound No. 1-118, 1-(2-Cyclohexylethyl)-3-[2-methyl-3-(4-pyridyl)propyl]-1-pentylurea], in series [1], the inhibition at 10 µM was 81.6%.

Compound `CCCCCN(CCC12CC3CC(CC(C3)C1)C2)C(=O)NC(C)CCc1ccncc1` (centres unmarked) [Compound No. 1-137, 1-[2-(1-Adamantyl)ethyl]-3-[1-methyl-3-(4-pyridyl)propyl]-1-pentylurea] came in with a melting point of 128.5 to 129 °C. Besides, the inhibition at 10 µM in series [1] is 83.3%.

Consider `CCCCCN(CCC12CC3CC(CC(C3)C1)C2)C(=O)CCCCc1ccncc1` [Compound No. 2-14, 5-(4-Pyridyl)valeric acid N-[2-(1-adamantyl)ethyl]-N-pentylamide], for which the inhibition at 10 µM in series [1] was determined as 83.4%.

For the compound `CCCCCN(CCC12CC3CC(CC(C3)C1)C2)C(=O)CCSCc1ccncc1` [Compound No. 2-15, 3-(4-Pyridylmethylthio)propionic acid N-[2-(1-adamantyl)ethyl]-N-pentylamide], the inhibition at 10 µM in series [1] stood at 83.3%.

Turning to `CCCCCN(CCC12CC3CC(CC(C3)C1)C2)C(=O)CSCCc1ccncc1` [Compound No. 2-18, 2-[2-(4-Pyridyl)ethylthio]acetic acid N-[2-(1-adamantyl)ethyl]-N-pentylamide], the inhibition at 10 µM in series [1] worked out at 82.2%.

Turning to `CCCCCN(CCC12CC3CC(CC(C3)C1)C2)C(=O)CCCCCc1ccncc1` [Compound No. 2-20, 6-(4-Pyridyl)caproic acid N-[2-(1-adamantyl)ethyl]-N-pentylamide], the inhibition at 10 µM in series [1] is 82.5%.

`CN(CCN(CCC12CC3CC(CC(C3)C1)C2)C(=O)NCCCc1ccncc1)C(=O)CC(C)(C)C` [Compound No. 10-6, 1-[2-(1-Adamantyl)ethyl]-1-[2-[N-(3,3-dimethylbutyryl)-N-methylamino]ethyl]-3-[3-(4-pyridyl)propyl]urea] showed a melting point of 101.4 to 102.4 °C.

`CC(C)(C)OC(=O)NCCN(CCC12CC3CC(CC(C3)C1)C2)C(=O)NCCCc1ccncc1` [Compound No. 10-8, 1-[2-(1-Adamantyl)ethyl]-1-[2-[N-(t-butoxycarbonyl)amino]ethyl]-3-[3-(4-pyridyl)propyl]urea] displayed a melting point of 158 to 160.5 °C.

With `CN(CCN(CCC12CC3CC(CC(C3)C1)C2)C(=O)NCCCc1ccncc1)C(=O)OC(C)(C)C(Cl)(Cl)Cl` [Compound No. 10-10, 1-[2-(1-Adamantyl)ethyl]-1-[2-[N-(1,1-dimethyl-2,2,2-trichloroethoxycarbonyl)-N-methylamino}ethyl]-3-[3-(4-pyridyl)propyl]urea], the melting point fell in the range of 47 to 52 °C.

`O=C(NCCCc1ccncc1)N(O)CCC12CC3CC(CC(C3)C1)C2` [Compound No. 12-1, 1-[2-(1-Adamantyl)ethyl]-1-hydroxy-3-[3-(4-pyridyl)propyl]urea] came in with a melting point of 101 to 102.59 °C.

Take `CCCCCN(CCC12CC3CC(CC(C3)C1)C2)C(=O)NCCCc1cc[n+]([O-])cc1` [Compound No. 16-1, 4-[3-[3-[2-(1-Adamantyl)ethyl]-3-pentylureido]propyl]pyridine N-oxide]: the melting point fell in the range of 97.8 to 127 °C.

`CCNCCN(CCC12CC3CC(CC(C3)C1)C2)C(=O)NCCCc1ccncc1` [Compound No. 20-1, 1-[2-(1-Adamantyl)ethyl]-1-[2-(N-ethylamino)ethyl]-3-[3-(4-pyridyl)propyl]urea]: the melting point was in the range of 96.8 to 104.9 °C.

`CCCCCN(CCC12CC3CC(CC(C3)C1)C2)C(=O)NCCC(=O)c1ccncc1` [Compound No. 31-1, 1-[2-(1-Adamantyl)ethyl]-3-[3-oxo-3-(4-pyridyl)propyl]-1-pentylurea] came in with a melting point of 103.5 to 104 °C.
